Experiments:
[1] = tested on: MDS patients without 5q deletions; details: cited from earlier work
STAT5 = STAT5 DNA binding by EMSA in UT7 nuclear extracts; assay type: cell-based; details: combined lenalidomide and EPO treatment
rhu-CD45 = target: T1, rhu-CD45 (Homo sapiens, UniProt P08575); experiment: BIOMOL Green CD45 Tyrosine Phosphatase Assay; assay type: biochemical; details: recombinant CD45, substrate pp60c-Src, read-out: inhibition of CD45 PTP activity
T1 construct: purchased Calbiochem
T1 sequence (P08575 26-1306): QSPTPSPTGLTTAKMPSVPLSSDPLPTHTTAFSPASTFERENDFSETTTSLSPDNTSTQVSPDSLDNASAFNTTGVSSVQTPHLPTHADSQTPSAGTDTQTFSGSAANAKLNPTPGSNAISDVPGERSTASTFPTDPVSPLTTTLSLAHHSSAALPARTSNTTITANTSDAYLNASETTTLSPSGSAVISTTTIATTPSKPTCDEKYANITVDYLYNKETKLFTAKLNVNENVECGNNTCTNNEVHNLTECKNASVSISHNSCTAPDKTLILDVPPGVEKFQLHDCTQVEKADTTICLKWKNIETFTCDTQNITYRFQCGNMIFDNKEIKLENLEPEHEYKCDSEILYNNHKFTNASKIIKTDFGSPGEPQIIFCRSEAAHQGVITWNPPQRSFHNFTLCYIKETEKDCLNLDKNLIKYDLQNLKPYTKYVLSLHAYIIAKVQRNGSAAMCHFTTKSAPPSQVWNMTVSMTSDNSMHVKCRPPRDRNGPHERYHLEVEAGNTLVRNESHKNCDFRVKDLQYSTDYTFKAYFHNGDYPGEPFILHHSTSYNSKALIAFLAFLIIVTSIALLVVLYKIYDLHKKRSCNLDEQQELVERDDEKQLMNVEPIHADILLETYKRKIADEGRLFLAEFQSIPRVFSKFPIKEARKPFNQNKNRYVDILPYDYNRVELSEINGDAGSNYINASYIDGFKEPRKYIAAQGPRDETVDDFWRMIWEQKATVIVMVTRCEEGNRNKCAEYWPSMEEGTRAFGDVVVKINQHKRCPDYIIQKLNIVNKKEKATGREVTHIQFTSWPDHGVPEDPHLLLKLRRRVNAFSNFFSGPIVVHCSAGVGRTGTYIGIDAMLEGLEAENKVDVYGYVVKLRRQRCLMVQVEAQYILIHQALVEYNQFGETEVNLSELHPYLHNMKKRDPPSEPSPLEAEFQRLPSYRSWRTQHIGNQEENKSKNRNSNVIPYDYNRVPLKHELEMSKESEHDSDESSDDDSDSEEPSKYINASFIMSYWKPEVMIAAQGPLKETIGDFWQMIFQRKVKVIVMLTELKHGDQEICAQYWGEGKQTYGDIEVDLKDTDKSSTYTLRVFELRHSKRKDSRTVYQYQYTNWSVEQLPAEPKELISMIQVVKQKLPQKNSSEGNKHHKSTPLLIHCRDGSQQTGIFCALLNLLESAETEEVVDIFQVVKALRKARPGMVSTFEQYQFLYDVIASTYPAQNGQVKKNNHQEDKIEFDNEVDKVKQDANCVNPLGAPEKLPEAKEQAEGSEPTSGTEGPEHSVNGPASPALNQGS
Protocol: CD45-specific PTP activity was assayed as outlined in the BIOMOL Green™ CD45 Tyrosine Phosphatase Assay Kit. Briefly, 75 U of rhu-CD45 (Calbiochem) was incubated for 1H at 37° C. with the indicated inhibitors (1 μM CC5013 and thalidomide, 100 μM Na Orthovanadate, and 50 μM RWJ-60475 (CD45-specific PTP inhibitor) in 1× assay buffer. The substrate pp60c-Src was added at 200 μM and incubated for 1H at 37° C. Samples were read on a plate reader at 620 nm. Percent PTP activity was calculated according to the equation (OD of test sample/OD of control)×100.
This notion is in agreement with findings that lenalidomide suppressed cytosolic release of Csk that is dependent upon dephosphorylation of the Cbp/PAG Csk docking site (Tyr314) by CD45. To determine if lenalidomide inhibits CD45 phosphatase, recombinant CD45 PTP inhibition by lenalidomide and thalidomide was compared to the pan-PTP inhibitor sodium orthovanadate and the CD45-selective inhibitor, RWJ-60475 using the Biomol CD45 phosphatase assay. […] [FIG. 7].

c-Src = c-Src activation (p-Src416, p-Src527, Bcl-XL) in UT7 cells by Western immunoblot; assay type: cell-based
From the text: FIGS. 5A and 5B show lenalidomide potentiates c-Src activation. […] Cells were lysed and assayed for β-actin (Sigma), or Src, p-Src416, p-Src 527 and Bcl-XL (Cell Signaling) by Western immunoblot. Protein loading was normalized to β-actin. Relative Src activation in FIG. 5B represents the ratio of p-Src416 (activation site phosphorylation) to p-Src527 (C-terminal inhibitory p-tyrosine).
To confirm that EPO-R signal potentiation by lenalidomide is associated with activation of Src and Lyn kinases, Src activation was evaluated using phospho-tyrosine specific antibodies that recognize either the activation loop tyrosine (Tyr416) or the C-terminal inhibitory tyrosine (Tyr527) of c-Src. Lenalidomide alone increased phosphorylation of Tyr416 by 50% compared to the vehicle treated control [FIG. 5].

SMILES: Nc1cccc2c1CN(C1CCC(=O)NC1=O)C2=O (stereo not drawn) [lenalidomide, 3-(4-amino-1-oxo-1,3-dihydro-2H-isoindol-2-yl)piperidine-2,6-dione]
- patients who benefit from lenalidomide therapy [1]: Approximately 25%
- STAT5 DNA binding (nuclear translocation) (STAT5): greater DNA binding
- inhibition at 1 µM (rhu-CD45): ~50%
- increase in phosphorylation of Src Tyr416 compared to the vehicle treated control (c-Src; lenalidomide alone): 50%
- Src activation compared to the vehicle control (c-Src; lenalidomide combined with EPO, supra-additive): ~3 fold
- EPO-dependent induction of Bcl-XL (c-Src; lenalidomide pre-treatment): augmented
